Common to all, as to assay: Trk enzyme assay ([33P] incorporation into poly-EAY)
Holding throughout (assay type): biochemical

In assay [1] the target is TrkB WT (Homo sapiens, UniProt Q16620). The settings on record: wild-type TrkB enzyme; 22° C., 60 minutes.
In assay [2] the target is TrkA G595R (Homo sapiens, UniProt P04629, G595R). The settings on record: mutant TrkA G595R enzyme; 22° C., 60 minutes.
For assay [3], the target named is TrkC G623R (Homo sapiens, UniProt Q16288, G623R/S70N). The settings on record: mutant TrkC G623R enzyme; 22° C., 60 minutes.
Sequence of TrkC G623R (Q16288 32-839 S70N/G623R): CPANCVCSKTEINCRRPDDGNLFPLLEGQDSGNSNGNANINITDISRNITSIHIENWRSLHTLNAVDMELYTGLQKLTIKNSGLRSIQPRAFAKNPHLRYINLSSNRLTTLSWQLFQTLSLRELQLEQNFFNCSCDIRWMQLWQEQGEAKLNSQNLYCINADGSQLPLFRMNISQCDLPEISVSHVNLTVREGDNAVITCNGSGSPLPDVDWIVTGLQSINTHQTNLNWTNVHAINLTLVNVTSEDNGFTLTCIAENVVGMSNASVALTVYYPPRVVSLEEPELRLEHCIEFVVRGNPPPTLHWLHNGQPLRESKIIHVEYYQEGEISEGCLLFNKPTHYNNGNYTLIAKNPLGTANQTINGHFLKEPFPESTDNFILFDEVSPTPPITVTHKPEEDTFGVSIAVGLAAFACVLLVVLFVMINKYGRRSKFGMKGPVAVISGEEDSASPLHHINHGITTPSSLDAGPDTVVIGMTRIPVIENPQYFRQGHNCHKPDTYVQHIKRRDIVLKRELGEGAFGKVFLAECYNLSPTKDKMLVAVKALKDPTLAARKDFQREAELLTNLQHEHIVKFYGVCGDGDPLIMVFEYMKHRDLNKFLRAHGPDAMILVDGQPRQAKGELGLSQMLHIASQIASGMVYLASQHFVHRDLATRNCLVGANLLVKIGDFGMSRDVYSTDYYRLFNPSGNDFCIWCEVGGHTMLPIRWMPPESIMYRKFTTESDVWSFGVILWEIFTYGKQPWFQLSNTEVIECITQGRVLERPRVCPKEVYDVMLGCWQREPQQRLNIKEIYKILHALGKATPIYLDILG
Assay [4] has as its target TrkA WT (Homo sapiens, UniProt P04629). The settings on record: wild-type TrkA enzyme; 22° C., 60 minutes.
Assay [5] has as its target TrkB G623R (Homo sapiens, UniProt Q16620, G623R). The settings on record: mutant TrkB G623R enzyme; 22° C., 60 minutes.
Assay [6] addresses TrkA G667C (Homo sapiens, UniProt P04629, G667C). The settings on record: mutant TrkA G667C enzyme; 22° C., 60 minutes.
The target of assay [7] is TrkA G667S (Homo sapiens, UniProt P04629, G667S). The settings on record: mutant TrkA G667S enzyme; 22° C., 60 minutes.
Sequence of TrkA G667S (P04629 33-796 G667S): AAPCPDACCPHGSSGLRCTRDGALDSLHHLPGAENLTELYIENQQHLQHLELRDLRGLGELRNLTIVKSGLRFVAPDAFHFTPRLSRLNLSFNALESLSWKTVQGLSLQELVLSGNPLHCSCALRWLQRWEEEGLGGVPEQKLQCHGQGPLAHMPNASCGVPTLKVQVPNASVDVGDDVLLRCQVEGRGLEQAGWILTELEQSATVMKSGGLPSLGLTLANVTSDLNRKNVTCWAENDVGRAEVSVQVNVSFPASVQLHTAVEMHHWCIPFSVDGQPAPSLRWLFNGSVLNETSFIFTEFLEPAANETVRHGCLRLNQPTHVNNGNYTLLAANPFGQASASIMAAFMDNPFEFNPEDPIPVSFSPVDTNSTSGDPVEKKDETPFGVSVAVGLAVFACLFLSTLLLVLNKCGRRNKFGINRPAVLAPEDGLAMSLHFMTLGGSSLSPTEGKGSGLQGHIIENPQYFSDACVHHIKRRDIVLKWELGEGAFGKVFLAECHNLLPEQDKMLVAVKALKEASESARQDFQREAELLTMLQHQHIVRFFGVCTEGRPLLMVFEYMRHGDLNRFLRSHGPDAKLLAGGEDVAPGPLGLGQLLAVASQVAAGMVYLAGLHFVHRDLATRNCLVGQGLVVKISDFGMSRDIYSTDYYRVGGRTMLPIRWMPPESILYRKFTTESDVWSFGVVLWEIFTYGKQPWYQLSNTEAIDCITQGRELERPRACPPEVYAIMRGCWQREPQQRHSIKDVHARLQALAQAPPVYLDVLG
In assay [8] the target is TrkA F589L (Homo sapiens, UniProt P04629, F589L). The note with it: mutant TrkA F589L enzyme; 22° C., 60 minutes.
Sequence of TrkA F589L (P04629 33-796 F589L): as the sequence (P04629 33-796 G667S) above, with F557L, S635G counted along it
Assay [9] addresses TrkC F617L (Homo sapiens, UniProt Q16288, F617L/S70N). The note with it: mutant TrkC F617L enzyme; 22° C., 60 minutes.
Assay [10] deals with TrkC WT (Homo sapiens, UniProt Q16288, S70N). The note with it: wild-type TrkC enzyme; 22° C., 60 minutes.
Sequence of TrkC WT (Q16288 32-839 S70N): as the sequence (Q16288 32-839 S70N/G623R) above, with R592G counted along it
The target of assay [11] is TrkA V573M (Homo sapiens, UniProt P04629, V573M). The note with it: mutant TrkA V573M enzyme; 22° C., 60 minutes.
Sequence of TrkA V573M (P04629 33-796 V573M): as the sequence (P04629 33-796 G667S) above, with V541M, S635G counted along it

Sequence of TrkA G595R (P04629 33-796 G595R): as the sequence (P04629 33-796 G667S) above, with G563R, S635G counted along it
Sequence of TrkA WT (P04629 33-796): as the sequence (P04629 33-796 G667S) above, with S635G counted along it
Sequence of TrkB WT (Q16620 32-822): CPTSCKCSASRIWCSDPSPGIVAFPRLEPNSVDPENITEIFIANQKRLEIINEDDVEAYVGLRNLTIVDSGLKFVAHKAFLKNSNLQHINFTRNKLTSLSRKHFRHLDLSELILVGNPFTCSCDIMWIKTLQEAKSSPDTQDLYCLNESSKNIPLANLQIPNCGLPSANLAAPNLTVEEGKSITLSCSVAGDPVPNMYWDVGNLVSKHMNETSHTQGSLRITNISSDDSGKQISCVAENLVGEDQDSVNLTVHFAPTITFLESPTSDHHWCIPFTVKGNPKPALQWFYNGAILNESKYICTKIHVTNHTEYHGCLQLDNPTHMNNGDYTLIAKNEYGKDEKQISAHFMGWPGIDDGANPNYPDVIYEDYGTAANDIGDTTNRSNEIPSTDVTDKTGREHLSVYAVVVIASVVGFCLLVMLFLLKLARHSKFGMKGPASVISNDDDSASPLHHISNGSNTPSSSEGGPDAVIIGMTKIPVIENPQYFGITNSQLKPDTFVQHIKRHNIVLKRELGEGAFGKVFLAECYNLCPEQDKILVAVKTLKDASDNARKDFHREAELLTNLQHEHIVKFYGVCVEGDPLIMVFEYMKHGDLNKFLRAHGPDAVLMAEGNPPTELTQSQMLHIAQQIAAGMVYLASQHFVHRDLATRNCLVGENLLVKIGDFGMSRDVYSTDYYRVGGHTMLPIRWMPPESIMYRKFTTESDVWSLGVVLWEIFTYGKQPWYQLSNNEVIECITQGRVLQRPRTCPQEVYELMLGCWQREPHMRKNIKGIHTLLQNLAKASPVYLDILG
Sequence of TrkA G667C (P04629 33-796 G667C): as the sequence (P04629 33-796 G667S) above, with S635C counted along it
Sequence of TrkB G623R (Q16620 32-822 G623R): as the sequence (Q16620 32-822) above, with G592R counted along it
Sequence of TrkC F617L (Q16288 32-839 S70N/F617L): as the sequence (Q16288 32-839 S70N/G623R) above, with F586L, R592G counted along it

As for `CC1(NC(=O)c2cnn3ccc(N4CCC[C@@H]4c4cncc(F)c4)nc23)CC1` [Compound 15, (R)-5-(2-(5-fluoropyridin-3-yl)pyrrolidin-1-yl)-N-(1-methylcyclopropyl)pyrazolo [1,5-a]pyrimidine-3-carboxamide], the IC50 is under 2.5 nM in assay [1]; 1.6 nM in [2]; 1.7 nM in assay [3]; under 0.5 nM in assay [4]; 1.6 nM in [5]; 8.1 nM in assay [6]. Further, the IC50 in assay [7] is 1.4 nM; in assay [8], 7.3 nM; in assay [9], under 5 nM; in assay [10] it was under 2.5 nM; in assay [11], 6.3 nM.
With `O=C(Nc1cnn2ccc(N3CCC[C@@H]3c3cc(F)ccc3Cl)nc12)N1CC(O)C1` [Compound 9, (R)-N-(5-(2-(2-chloro-5-fluorophenyl)pyrrolidin-1-yl)pyrazolo[1,5-a]pyrimidin-3-yl)-3-hydroxyazetidine-1-carboxamide], the IC50 in assay [1] is 4.6 nM; in assay [2], 91.9 nM; in assay [3], 92.6 nM; in assay [4], 0.8 nM; in assay [5] it was 104 nM; in [6], 76.5 nM. Also, the IC50 in [7] is 21.6 nM; in assay [8], 90.7 nM; in assay [9] it was 66.5 nM; in [10], under 2.5 nM; in [11], 106 nM.
On to `C[C@H]1CNC(=O)c2cnn3ccc(nc23)N2CCC[C@@H]2c2cc(F)cn(c2=O)C1` [Compound 24, (6R,13S)-9-fluoro-13-methyl-2,11,15, 19,20,23-hexaazapentacyclo [15.5.2.^17,11.0^2,6.0^20,24]pentacosa-1(23),7,9,17(24),18,21-hexaene-16,25-dione], for which the 50% inhibitory concentration (IC50) in [1] was 4.7 nM; in [2] it was 3.3 nM; in [3], 4.5 nM; in [4], 0.5 nM; in assay [5], 4.2 nM; in [6] it was 22.3 nM. Moreover, the IC50 in assay [7] is 4.7 nM; in assay [8], 86.8 nM; in assay [9] it was 61.9 nM; in assay [10], under 2.5 nM; in [11] it was 38.3 nM.
`O=C1NCCCOc2cccc(n2)[C@H]2CCCN2c2ccn3ncc1c3n2` [Compound 20, (6R)-12-oxa-2,16,20,21,24,26-hexaazapentacyclo[16.5.2.^17,11.0^2,6.0^21,25]-hexacosa-1(24),7(26),8,10,18(25),19,22-heptaen-17-one]: the IC50 in assay [1] was 3.1 nM; in assay [2], 2.7 nM; in assay [3], 3.1 nM; in assay [4] it was under 0.5 nM; in [5], 3.1 nM; in [6] it was 13.3 nM. Also, the concentration for half-maximal inhibition (IC50) in [7] is 3.2 nM; in assay [8], 48.3 nM; in [9], 18.3 nM; in assay [10] it was under 2.5 nM; in [11], 36.5 nM.
On to `CN(C)C(=O)Nc1cnn2ccc(N3CCC[C@@H]3c3cc(F)ccc3F)nc12` [Compound 8, (R)-3-(5-(2-(2,5-difluorophenyl)pyrrolidin-1-yl)pyrazolo[1,5-a]pyrimidin-3-yl)-1,1-dimethylurea], for which the IC50 in assay [1] came to 5 nM; in assay [2], 49.6 nM; in assay [3], 54.9 nM; in assay [4] it was 0.9 nM; in [5], 64.6 nM; in assay [6], 84.2 nM. Further, the IC50 is 19.7 nM in assay [7]; 154 nM in assay [8]; 67.1 nM in [9]; under 2.5 nM in assay [10]; 129 nM in assay [11].
With `CC1(C)CNC(=O)c2cnn3ccc(nc23)N2CCC[C@@H]2c2cc(F)cnc2OC1` [Compound 25, (6R)-9-fluoro-15,15-dimethyl-13-oxa-2,11,17,21,22,25-hexaazapentacyclo [17,5.2.0^2,6.0^7,12.0^22,26]hexacosa-1(25),7,9,11,19(26),20,23-heptaen-18-one], the IC50 in assay [1] is 8.7 nM; in [2], 3 nM; in assay [3] it was 4.7 nM; in [4] it was 1 nM; in [5], 2.3 nM; in assay [6], 1 nM. Further, the IC50 in [7] is 0.5 nM; in assay [8], 1.1 nM; in [9] it was 8.1 nM; in assay [10] it was 4 nM; in [11] it was under 5 nM.
Take `O=C1NC[C@H](O)COc2ccc(F)cc2[C@H]2CC(F)(F)CN2c2ccn3ncc1c3n2` [Compound 26, (15S)-4,4,9-trifluoro-15-hydroxy-13-oxa-2,17,21,22.25-pentaazapentacyclo [17.5.2.0^2,6.0^7,12.0^22,26]hexacosa-1(25),7(12),8,10,19(26),20,23-heptaen-18-one]: the concentration for half-maximal inhibition (IC50) was determined as 3.3 nM in assay [1]; 2.1 nM in [2]; 2.6 nM in assay [3]; 0.6 nM in assay [4]; 1.8 nM in [5]; 1 nM in assay [6]. The IC50 was 0.5 nM in assay [7]; 3.9 nM in assay [8]; 9.6 nM in assay [9]; under 2.5 nM in [10]; under 5 nM in [11].
Take `O=C1NCC(F)(F)COc2ncc(F)cc2[C@H]2CCCN2c2ccn3ncc1c3n2` [Compound 23, (6R)-9,15,15-trifluoro-13-oxa-2,11,17,21, 22,25-hexaazapentacyclo [17.5.2.0^2,6.0^7,12.0^22,26]hexacosa-1(25),7,9, 11,19(26),20,23-heptaen-18-one]: the half-maximal inhibitory concentration (IC50) in assay [1] was 6.1 nM; in assay [2], 1.6 nM; in [3] it was 2.1 nM; in assay [4] it was 0.7 nM; in assay [5], 1.1 nM; in [6], 0.8 nM. In addition, the IC50 in [7] is 0.3 nM; in [8], under 1 nM; in [9], 5.8 nM; in [10], 2.7 nM; in assay [11], under 5 nM.
For the compound `O=C(NC1CC1)c1cnn2ccc(N3CCC[C@@H]3c3cncc(F)c3)nc12` [Compound 13, (R)-N-cyclopropyl-5-(2-(5-fluoro-pyridin-3-yl)pyrrolidin-1-yl)pyrazolo [1,5-a]pyrimidine-3-carboxamide], the IC50 in assay [1] is 3.5 nM; in assay [2], 3.3 nM; in assay [3], 3.1 nM; in assay [4] it was under 0.5 nM; in assay [5], 2.7 nM; in assay [6], 32.4 nM. For the same compound, the IC50 is 4.1 nM in [7]; 37.2 nM in assay [8]; 8.7 nM in assay [9]; under 2.5 nM in assay [10]; 20.9 nM in [11].
For the compound `O=C(Nc1cnn2ccc(N3CCC[C@@H]3c3cccc(F)c3)nc12)N1CC(O)C1` [Compound 11, (R)-N-(5-(2-(3-fluorophenyl)pyrrolidin-1-yl)pyrazolo[1,5-a]pyrimidin-3-yl)-3-hydroxyazetidine-1-carboxamide], the IC50 in assay [1] came out at 19 nM; in assay [2], 561 nM; in assay [3] it was 446 nM; in assay [4], 6.9 nM; in assay [5], 671 nM; in [6], 830 nM. Moreover, the IC50 in assay [7] is 275 nM; in [8] it was 1080 nM; in [9], 476 nM; in assay [10], 4.4 nM; in assay [11], 1200 nM.
Consider `O=C1NC[C@@H](O)COc2ncc(F)cc2[C@H]2CCCN2c2ccn3ncc1c3n2` [Compound 17, (6R,15R)-9-fluoro-15-hydroxy-13-oxa-2,11,17,21,22,25-hexaazapentacyclo-[17.5.2.0^2,6.0^7,12.0^22,26]-hexacosa-1(25), 7,9,11,19(26),20,23-heptaen-18-one], for which the IC50 is 3.6 nM in [1]; 1.5 nM in assay [2]; 1.8 nM in assay [3]; under 0.5 nM in [4]; 1.1 nM in assay [5]; 2.6 nM in [6]. The IC50 is 0.7 nM in assay [7]; 2.1 nM in assay [8]; under 5 nM in [9]; under 2.5 nM in [10]; under 5 nM in assay [11].

The term IC50 denotes the concentration at which inhibition is half-maximal.

The values are drawn from patent US10370727B2, “Point mutations in TRK inhibitor-resistant cancer and methods relating to the same” (Loxo Oncology, Inc., priority 2015, dated 2019).
